Assay type in all cases: in vivo
The subject of assay [1] is Echinochloa crus-galli (ECHCG). In words: Post-emergence herbicidal activity, glasshouse pot test. Conditions: Echinochloa crus-galli, evaluated after 14 or 15 days, read-out: Post-emergence activity, ECHCG (100=total damage to plant; 0=no damage to plant); for pest or weed control at 500 g/ha: rate 500 g/ha; for pest or weed control at 125 g/ha: rate 125 g/ha. Here is the method: (§1) Monocotyledonous and dicotyledonous test plants were sown in sterilised standard soil in pots. After cultivation for one day (pre-emergence) or after 10 days cultivation (post-emergence) under controlled conditions in a glasshouse, the plants were sprayed with an aqueous spray solution derived from the formulation of the technical active ingredient in 0.6 ml acetone and 45 ml formulation solution containing 10.6% Emulsogen EL (Registry number 61791-12-6), 42.2% N-methylpyrrolidone, 42.2% dipropylene glycol monomethyl ether (Registry number 34590-94-8) and 0.2% X-77 (Registry number 11097-66-8). The test plants were then grown in a greenhouse under optimum conditions until, 14 or 15 days later for post-emergence and 20 days for pre-emergence, the test was evaluated (100=total damage to plant; 0=no damage to plant). Alopecurus myosuroides (ALOMY), Avena fatua (AVEFA), Lolium perenne (LOLPE), Setaria faberi (SETFA), Digitaria sanguinalis (DIGSA), Echinochloa crus-galli (ECHCG) Post-Emergence Activity

The test system of assay [2] is Digitaria sanguinalis (DIGSA). Described as above. Conditions: Digitaria sanguinalis, evaluated after 14 or 15 days, read-out: Post-emergence activity, DIGSA (100=total damage to plant; 0=no damage to plant); for pest or weed control at 500 g/ha: rate 500 g/ha; for pest or weed control at 125 g/ha: rate 125 g/ha. The procedure:
as §1

The test system of assay [3] is Avena fatua (AVEFA). The description is as above. Conditions: Avena fatua, evaluated after 14 or 15 days, read-out: Post-emergence activity, AVEFA (100=total damage to plant; 0=no damage to plant); for pest or weed control at 500 g/ha: rate 500 g/ha; for pest or weed control at 125 g/ha: rate 125 g/ha. Here is the method:
as §1

Assay [4] concerns Lolium perenne (LOLPE). The assay is described as above. The conditions noted are these: Lolium perenne, evaluated after 14 or 15 days, read-out: Post-emergence activity, LOLPE (100=total damage to plant; 0=no damage to plant); for pest or weed control at 500 g/ha: rate 500 g/ha; for pest or weed control at 125 g/ha: rate 125 g/ha. Here is the method: as §1
Assay [5] relates to Setaria faberi (SETFA). Described as above. The conditions noted are these: Setaria faberi, evaluated after 14 or 15 days, read-out: Post-emergence activity, SETFA (100=total damage to plant; 0=no damage to plant); for pest or weed control at 500 g/ha: rate 500 g/ha; for pest or weed control at 125 g/ha: rate 125 g/ha. The procedure: as §1
The subject of assay [6] is Alopecurus myosuroides (ALOMY). The description is as above. The conditions noted are these: Alopecurus myosuroides, evaluated after 14 or 15 days, read-out: Post-emergence activity, ALOMY (100=total damage to plant; 0=no damage to plant); for pest or weed control at 500 g/ha: rate 500 g/ha; for pest or weed control at 125 g/ha: rate 125 g/ha. Here is the method:
as §1

Assay [7] has as its system Echinochloa crus-galli (ECHCG). Nature of the assay: Pre-emergence herbicidal activity, glasshouse pot test. Conditions: Echinochloa crus-galli, 480 h, rate 500 g/ha, evaluated after 20 days, read-out: Pre-emergence activity, ECHCG (100=total damage to plant; 0=no damage to plant). Here is the method: as §1, with “Pre-Emergence” for “Post-Emergence”
The subject of assay [8] is Digitaria sanguinalis (DIGSA). Described as above. Conditions: Digitaria sanguinalis, 480 h, rate 500 g/ha, evaluated after 20 days, read-out: Pre-emergence activity, DIGSA (100=total damage to plant; 0=no damage to plant). Here is the method: as §1, with “Pre-Emergence” for “Post-Emergence”
For assay [9], the system named is Avena fatua (AVEFA). Described as above. The conditions noted are these: Avena fatua, 480 h, rate 500 g/ha, evaluated after 20 days, read-out: Pre-emergence activity, AVEFA (100=total damage to plant; 0=no damage to plant). The procedure:
as §1, with “Pre-Emergence” for “Post-Emergence”

Assay [10] has as its system Lolium perenne (LOLPE). Described as above. The conditions noted are these: Lolium perenne, 480 h, rate 500 g/ha, evaluated after 20 days, read-out: Pre-emergence activity, LOLPE (100=total damage to plant; 0=no damage to plant). Here is the method: as §1, with “Pre-Emergence” for “Post-Emergence”
Assay [11] has as its system Setaria faberi (SETFA). Described as above. Conditions: Setaria faberi, 480 h, rate 500 g/ha, evaluated after 20 days, read-out: Pre-emergence activity, SETFA (100=total damage to plant; 0=no damage to plant). Here is the method: as §1, with “Pre-Emergence” for “Post-Emergence”
The test system of assay [12] is Alopecurus myosuroides (ALOMY). The assay is described as above. The conditions noted are these: Alopecurus myosuroides, 480 h, rate 500 g/ha, evaluated after 20 days, read-out: Pre-emergence activity, ALOMY (100=total damage to plant; 0=no damage to plant). The procedure:
as §1, with “Pre-Emergence” for “Post-Emergence”

Consider `CCC[S+]([O-])C(C)CC1CC(=O)C(c2c(CC)cc(C)cc2CC)=C(O)C1` (centres unmarked) [Compound T37], for which the pest or weed control at 500 g/ha came out at 100% in assay [1]; 80% in assay [2]; 90% with Avena fatua (AVEFA) [3]; 90% in the assay with Lolium perenne (LOLPE) [4]; 50% in the assay on Setaria faberi (SETFA) [5]; 90% in [6]. The pest or weed control at 500 g/ha came to 100% in [7]; 100% in [8]; 90% with Avena fatua (AVEFA) [9]; 100% in the assay with Lolium perenne (LOLPE) [10]; 100% with Setaria faberi (SETFA) [11]; 100% in assay [12].

On to `CCc1cc(C)cc(CC)c1C1=C(OC(=O)CCCCCCC(=O)OC)CC2(CCOCC2)CC1=O` [Compound P46], for which the pest or weed control at 125 g/ha amounted to 100% in assay [1]; 90% in assay [2]; 100% in the assay with Avena fatua (AVEFA) [3]; 90% in the assay with Lolium perenne (LOLPE) [4]; 90% in the assay with Setaria faberi (SETFA) [5]; 90% in assay [6]. Further, the pest or weed control at 500 g/ha (in assay [7]; in assay [8]; in the assay on Avena fatua (AVEFA) [9]; in the assay with Lolium perenne (LOLPE) [10]; in the assay with Setaria faberi (SETFA) [11]; in assay [12]) was 100% throughout.

On to `CCc1cc(C)cc(CC)c1C1=C(OC(C)=O)CC2(CCOCC2)CC1=O` [Compound P1], for which the pest or weed control at 125 g/ha in [1] is 50%; in [2], 50%; with Avena fatua (AVEFA) [3], 60%; in the assay on Lolium perenne (LOLPE) [4] it was 30%; with Setaria faberi (SETFA) [5], 30%; in [6], 50%. For the same molecule, the pest or weed control at 500 g/ha (in assay [7]; in assay [8]; in the assay on Avena fatua (AVEFA) [9]; in the assay on Lolium perenne (LOLPE) [10]; with Setaria faberi (SETFA) [11]; in assay [12]) was 100% each time.

For `CCc1cc(C)cc(CC)c1C1=C(OS(=O)(=O)CC(F)(F)F)CC2(CCOCC2)CC1=O` [Compound P27], the pest or weed control at 125 g/ha was found to be 70% in assay [1]; 70% in assay [2]; 50% in the assay on Avena fatua (AVEFA) [3]; 70% with Lolium perenne (LOLPE) [4]; 50% with Setaria faberi (SETFA) [5]; 70% in assay [6]. Also, the pest or weed control at 500 g/ha (in assay [7]; in assay [8]; in the assay on Avena fatua (AVEFA) [9]; in the assay on Lolium perenne (LOLPE) [10]; in the assay with Setaria faberi (SETFA) [11]; in assay [12]) was 100% throughout.

With `CCc1ccc(-c2ccc(Cl)cc2)cc1C1=C(O)CC(CCSC)CC1=O` (centres unmarked) [Compound T65], the pest or weed control at 125 g/ha in [1] was 100%; in assay [2] it was 90%; in the assay with Avena fatua (AVEFA) [3], 90%; in the assay on Lolium perenne (LOLPE) [4], 70%; in the assay on Setaria faberi (SETFA) [5], 90%; in [6], 90%. Besides, the pest or weed control at 500 g/ha in assay [7] was determined as 100%; in [8] it was 100%; in the assay on Avena fatua (AVEFA) [9] it was 60%; in the assay on Lolium perenne (LOLPE) [10], 70%; in the assay on Setaria faberi (SETFA) [11], 100%; in assay [12], 90%.

`CCc1cc(C)cc(CC)c1C1=C(O)CC2(CCOCC2)CC1=O` [Compound T22, 9-(2,6-diethyl-4-methylphenyl)-3-oxaspiro[5.5]undecane-8,10-dione]: the pest or weed control at 125 g/ha in [1] was 100%; in assay [2], 100%; in the assay on Avena fatua (AVEFA) [3] it was 90%; in the assay with Lolium perenne (LOLPE) [4], 90%; in the assay with Setaria faberi (SETFA) [5] it was 100%; in [6] it was 100%. Moreover, the pest or weed control at 500 g/ha (in assay [7]; in assay [8]; in the assay on Avena fatua (AVEFA) [9]; in the assay on Lolium perenne (LOLPE) [10]; in the assay on Setaria faberi (SETFA) [11]; in assay [12]) was 100% in each case.

Consider `CCc1cc(C)cc(CC)c1C1=C(O)CC(CC(C)SC(C)C)CC1=O` (centres unmarked) [Compound T38], for which the pest or weed control at 500 g/ha in assay [1] was 70%; in [2], 70%; in the assay on Avena fatua (AVEFA) [3], 100%; with Lolium perenne (LOLPE) [4], 90%; in the assay on Setaria faberi (SETFA) [5], 80%; in [6], 90%. Besides, the pest or weed control at 500 g/ha in assay [7] amounted to 70%; in [8], 70%; in the assay on Avena fatua (AVEFA) [9], 70%; with Lolium perenne (LOLPE) [10], 100%; with Setaria faberi (SETFA) [11], 60%; in assay [12], 90%.

Take `CCc1cc(C)cc(CC)c1C1=C(O)CC2(CCSCC2)CC1=O` [Compound T11]: the pest or weed control at 500 g/ha turned out to be 90% in [1]; 90% in assay [2]; 80% in the assay on Avena fatua (AVEFA) [3]; 70% in the assay on Lolium perenne (LOLPE) [4]; 90% with Setaria faberi (SETFA) [5]; 80% in assay [6]. For the same molecule, the pest or weed control at 500 g/ha is 80% in assay [7]; 90% in assay [8]; 100% in the assay on Lolium perenne (LOLPE) [10]; 90% in the assay on Setaria faberi (SETFA) [11]; 80% in assay [12].

These data come from patent US8084649B2, “Herbicides” (Syngenta Crop Protection, inc., priority 2007, dated 2011).
